Results taken from patent US12559464B2, “Quinazolinone dione compounds and uses thereof” (Edgewise Therapeutics, Inc., priority 2023, dated 2026).

How the values were obtained:
[1] = target: T1, myosin ATPase, Porcine Ventricle myofibrils (Sus scrofa, UniProt P79293); assay: Myofibril ATPase assay, porcine ventricle myofibrils; assay type: biochemical, porcine (Yucatan minipigs); conditions: concentration required to reduce myosin ATP-ase activity by 25%; Porcine Ventricle Prep pCa 25 GEOM_MEAN
T1 construct: Myofibrils from porcine cardiac muscle was isolated from the left ventricle of Yucatan minipigs; tissue Exemplar Genetics; host or cells: left ventricle of Yucatan minipigs, myofibrils
T1 sequence (P79293 whole entry): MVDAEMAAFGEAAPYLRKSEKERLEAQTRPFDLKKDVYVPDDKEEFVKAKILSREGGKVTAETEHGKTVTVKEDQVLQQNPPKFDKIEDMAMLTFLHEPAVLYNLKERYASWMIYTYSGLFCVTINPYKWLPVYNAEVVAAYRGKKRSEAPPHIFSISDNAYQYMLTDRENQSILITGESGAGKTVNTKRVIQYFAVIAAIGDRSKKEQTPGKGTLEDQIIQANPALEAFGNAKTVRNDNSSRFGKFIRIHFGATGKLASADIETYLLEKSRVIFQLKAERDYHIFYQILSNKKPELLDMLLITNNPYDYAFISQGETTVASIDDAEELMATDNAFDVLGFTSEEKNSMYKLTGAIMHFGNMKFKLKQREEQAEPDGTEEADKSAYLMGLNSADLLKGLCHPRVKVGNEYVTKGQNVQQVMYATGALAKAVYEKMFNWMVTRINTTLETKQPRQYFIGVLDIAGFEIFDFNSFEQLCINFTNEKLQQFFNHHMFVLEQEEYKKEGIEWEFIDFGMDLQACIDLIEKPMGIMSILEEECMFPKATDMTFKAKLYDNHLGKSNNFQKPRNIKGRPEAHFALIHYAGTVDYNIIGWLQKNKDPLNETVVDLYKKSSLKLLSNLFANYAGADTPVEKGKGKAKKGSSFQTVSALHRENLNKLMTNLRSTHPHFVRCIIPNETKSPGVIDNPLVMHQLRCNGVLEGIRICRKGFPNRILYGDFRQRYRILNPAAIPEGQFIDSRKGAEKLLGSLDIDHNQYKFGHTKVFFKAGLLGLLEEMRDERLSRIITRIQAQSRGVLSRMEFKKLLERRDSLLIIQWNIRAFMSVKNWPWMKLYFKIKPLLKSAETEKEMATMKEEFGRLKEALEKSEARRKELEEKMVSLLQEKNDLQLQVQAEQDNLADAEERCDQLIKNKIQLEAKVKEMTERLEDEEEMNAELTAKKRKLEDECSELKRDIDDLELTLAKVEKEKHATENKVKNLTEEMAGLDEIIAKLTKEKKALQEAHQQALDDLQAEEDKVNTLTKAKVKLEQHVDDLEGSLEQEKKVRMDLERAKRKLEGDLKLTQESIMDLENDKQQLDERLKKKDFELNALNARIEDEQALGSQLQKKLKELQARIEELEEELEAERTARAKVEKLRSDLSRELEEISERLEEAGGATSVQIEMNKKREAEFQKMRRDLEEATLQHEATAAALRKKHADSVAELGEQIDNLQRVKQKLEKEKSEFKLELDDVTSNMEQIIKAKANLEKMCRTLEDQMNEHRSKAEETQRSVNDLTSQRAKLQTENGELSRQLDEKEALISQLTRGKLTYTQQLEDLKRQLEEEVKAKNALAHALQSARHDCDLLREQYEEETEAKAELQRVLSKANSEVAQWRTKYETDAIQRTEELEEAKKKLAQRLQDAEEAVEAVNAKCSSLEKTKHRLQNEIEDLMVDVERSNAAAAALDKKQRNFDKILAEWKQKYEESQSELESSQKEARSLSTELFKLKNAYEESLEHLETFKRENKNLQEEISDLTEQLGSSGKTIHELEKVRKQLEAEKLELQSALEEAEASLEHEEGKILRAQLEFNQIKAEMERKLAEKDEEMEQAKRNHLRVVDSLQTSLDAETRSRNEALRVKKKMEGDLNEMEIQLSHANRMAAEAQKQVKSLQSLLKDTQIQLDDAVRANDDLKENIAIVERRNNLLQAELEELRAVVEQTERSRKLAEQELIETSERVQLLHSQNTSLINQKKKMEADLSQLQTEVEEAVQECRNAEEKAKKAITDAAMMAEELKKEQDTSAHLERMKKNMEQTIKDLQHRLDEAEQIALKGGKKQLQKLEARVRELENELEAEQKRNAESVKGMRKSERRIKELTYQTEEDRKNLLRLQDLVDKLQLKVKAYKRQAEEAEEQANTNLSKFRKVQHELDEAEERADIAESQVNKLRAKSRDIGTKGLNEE
Outline: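 Myofibrils from Yucatan minipig left ventricle; ADP production coupled via PK-LDH to NADH loss, read kinetically at 340 nm every 1.5–2 min for 75 min in PIPES/MgCl2 pH 7.0 buffer. Slopes normalized to vehicle and fit to 4-parameter logistic; values are concentrations giving 75% (inhibition) or 125% (activation) of vehicle activity.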

[2] = test system: myosin ATPase, Porcine Atria myofibrils; assay: Myofibril ATPase assay, porcine atria myofibrils; assay type: biochemical; conditions: concentration required to reduce myosin ATP-ase activity by 25%; Porcine Atria Prep pCa 25 GEOM_MEAN
[3] = test system: myosin ATPase, Rabbit Psoas myofibrils; assay: Myofibril ATPase assay, rabbit psoas (skeletal) myofibrils; assay type: biochemical; conditions: Rabbit Psoas Prep pCa 25 GEOM_MEAN; for Rabbit Psoas EC25 (Y75 value): concentration required to reduce myosin ATP-ase activity by 25%; for Rabbit Psoas Y125 value (marked #): concentration required to increase myosin ATP-ase activity by 25%

C[C@@H](NC(=O)C1(n2c(=O)[nH]c3ccc(F)c(F)c3c2=O)CC1)c1ncc(C#N)cc1F (single isomer, unassigned) [Compound 3011]
Porcine Ventricle EC25 (Y75 value) [1]: 13.07 µM | Porcine Atria EC25 (Y75 value) [2]: 0.42 µM | Rabbit Psoas EC25 (Y75 value) [3]: 4.77 µM

C[C@H](NC(=O)C1(n2c(=O)[nH]c3ccc(F)c(F)c3c2=O)CC1)c1ncc(C#N)cc1F (single isomer, unassigned) [Compound 3013]
Porcine Ventricle EC25 (Y75 value) [1]: 1.04 µM | Porcine Atria EC25 (Y75 value) [2]: 0.19 µM | Rabbit Psoas EC25 (Y75 value) [3]: 0.40 µM

C[C@@H](NC(=O)C1(n2c(=O)[nH]c3cccc(C#N)c3c2=O)CC1)c1ncc(C#N)cc1F (single isomer, unassigned) [Compound 3014]
Porcine Ventricle EC25 (Y75 value) [1]: 100.00 µM | Porcine Atria EC25 (Y75 value) [2]: 100.00 µM | Rabbit Psoas EC25 (Y75 value) [3]: 100.00 µM

C[C@H](NC(=O)C1(n2c(=O)[nH]c3cccc(C#N)c3c2=O)CC1)c1ncc(C#N)cc1F (single isomer, unassigned) [Compound 3015]
Porcine Ventricle EC25 (Y75 value) [1]: 10.96 µM | Porcine Atria EC25 (Y75 value) [2]: 1.89 µM | Rabbit Psoas EC25 (Y75 value) [3]: 0.89 µM

Cc1c(F)ccc2[nH]c(=O)n(CC(=O)N[C@H]3CCc4cc(C#N)cnc43)c(=O)c12 [Compound 10, (S)-N-(3-cyano-6,7-dihydro-5H-cyclopenta[b]pyridin-7-yl)-2-(6-fluoro-5-methyl-2,4-dioxo-1,4-dihydroquinazolin-3(2H)-yl)acetamide]
Porcine Ventricle EC25 (Y75 value) [1]: 100 µM | Porcine Atria EC25 (Y75 value) [2]: 100 µM | Rabbit Psoas EC25 (Y75 value) [3]: 100 µM

Cc1nccc2[nH]c(=O)n(CC(=O)N[C@@H](C)c3ncc(C#N)cc3F)c(=O)c12 [Compound 20, (S)-N-(1-(5-cyano-3-fluoropyridin-2-yl)ethyl)-2-(5-methyl-2,4-dioxo-1,4-dihydropyrido[4,3-d]pyrimidin-3(2H)-yl)acetamide]
Porcine Ventricle EC25 (Y75 value) [1]: 7.141 µM | Porcine Atria EC25 (Y75 value) [2]: 2.095 µM | Rabbit Psoas EC25 (Y75 value) [3]: 0.799 µM

C[C@H](NC(=O)[C@H](Cc1ccccc1)n1c(=O)[nH]c2cccc(O)c2c1=O)c1ccc(F)cc1F [Compound 33, (S)-N-((S)-1-(2,4-difluorophenyl)ethyl)-2-(5-hydroxy-2,4-dioxo-1,4-dihydroquinazolin-3(2H)-yl)-3-phenylpropanamide]
Porcine Ventricle EC25 (Y75 value) [1]: 100 µM | Porcine Atria EC25 (Y75 value) [2]: 100 µM | Rabbit Psoas Y125 value (marked #) [3]: 51.2^# μM

C[C@H](NC(=O)[C@@H](Cc1ccccc1)n1c(=O)[nH]c2cccc(O)c2c1=O)c1ccc(F)cc1F [Compound 34, (R)-N-((S)-1-(2,4-difluorophenyl)ethyl)-2-(5-hydroxy-2,4-dioxo-1,4-dihydroquinazolin-3(2H)-yl)-3-phenylpropanamide]
Porcine Ventricle EC25 (Y75 value) [1]: 45.37 µM | Porcine Atria EC25 (Y75 value) [2]: 48.85 µM | Rabbit Psoas Y125 value (marked #) [3]: 0.85^#^ μM

C[C@H](NC(=O)[C@@H](C)n1c(=O)[nH]c2ccc(F)c(F)c2c1=O)c1ccc(F)cc1F [Compound 37, (R)-2-(5,6-difluoro-2,4-dioxo-1,4-dihydroquinazolin-3(2H)-yl)-N-((S)-1-(2,4-difluorophenyl)ethyl)propanamide]
Porcine Ventricle EC25 (Y75 value) [1]: 17.77 µM | Porcine Atria EC25 (Y75 value) [2]: 0.658 µM | Rabbit Psoas EC25 (Y75 value) [3]: 0.412 µM

C[C@H](NC(=O)[C@H](C)n1c(=O)[nH]c2ccc(F)c(F)c2c1=O)c1ccc(F)cc1F [Compound 38, (S)-2-(5,6-difluoro-2,4-dioxo-1,4-dihydroquinazolin-3(2H)-yl)-N-((S)-1-(2,4-difluorophenyl)ethyl)propanamide]
Porcine Ventricle EC25 (Y75 value) [1]: 3.995 µM | Porcine Atria EC25 (Y75 value) [2]: 0.185 µM | Rabbit Psoas EC25 (Y75 value) [3]: 0.422 µM

C[C@H](NC(=O)Cn1c(=O)[nH]c2ccc(F)c(F)c2c1=O)c1ccc(F)cc1F [Compound 39, (S)-2-(5,6-difluoro-2,4-dioxo-1,4-dihydroquinazolin-3(2H)-yl)-N-(1-(2,4-difluorophenyl)ethyl)acetamide]
Porcine Ventricle EC25 (Y75 value) [1]: 0.3333 µM | Porcine Atria EC25 (Y75 value) [2]: 0.0536 µM | Rabbit Psoas EC25 (Y75 value) [3]: 0.055 µM

C[C@H](NC(=O)[C@H](C)n1c(=O)[nH]c2ccc(F)cc2c1=O)c1ccc(F)cc1F [Compound 40, (S)-N-((S)-1-(2,4-difluorophenyl)ethyl)-2-(6-fluoro-2,4-dioxo-1,4-dihydroquinazolin-3(2H)-yl)propanamide]
Porcine Ventricle EC25 (Y75 value) [1]: 6.567 µM | Porcine Atria EC25 (Y75 value) [2]: 0.1074 µM | Rabbit Psoas EC25 (Y75 value) [3]: 0.476 µM

C[C@H](NC(=O)[C@@H](C)n1c(=O)[nH]c2ccc(F)cc2c1=O)c1ccc(F)cc1F [Compound 41, (R)-N-((S)-1-(2,4-difluorophenyl)ethyl)-2-(6-fluoro-2,4-dioxo-1,4-dihydroquinazolin-3(2H)-yl)propanamide]
Porcine Ventricle EC25 (Y75 value) [1]: 28.36 µM | Porcine Atria EC25 (Y75 value) [2]: 1.375 µM | Rabbit Psoas EC25 (Y75 value) [3]: 0.828 µM

C[C@H](NC(=O)C(C)(C)n1c(=O)[nH]c2ccccc2c1=O)c1ccc(F)cc1F [Compound 42, (S)-N-(1-(2,4-difluorophenyl)ethyl)-2-(2,4-dioxo-1,4-dihydroquinazolin-3(2H)-yl)-2-methylpropanamide]
Porcine Ventricle EC25 (Y75 value) [1]: 100 µM | Porcine Atria EC25 (Y75 value) [2]: 100 µM | Rabbit Psoas EC25 (Y75 value) [3]: 100 µM

CN1CC(NC(=O)Cn2c(=O)[nH]c3ccccc3c2=O)c2c(F)cc(F)cc2C1=O (stereo not drawn) [Compound 43, N-(5,7-difluoro-2-methyl-1-oxo-1,2,3,4-tetrahydroisoquinolin-4-yl)-2-(2,4-dioxo-1,4-dihydroquinazolin-3(2H)-yl)acetamide]
Porcine Ventricle EC25 (Y75 value) [1]: 100 µM | Porcine Atria EC25 (Y75 value) [2]: 100 µM | Rabbit Psoas EC25 (Y75 value) [3]: 58.79 µM

O=C(Cn1c(=O)[nH]c2ccccc2c1=O)NC1CNC(=O)c2cc(F)cc(F)c21 (stereo not drawn) [Compound 46, N-(5,7-difluoro-1-oxo-1,2,3,4-tetrahydroisoquinolin-4-yl)-2-(2,4-dioxo-1,4-dihydroquinazolin-3(2H)-yl)acetamide]
Porcine Ventricle EC25 (Y75 value) [1]: 100 µM | Porcine Atria EC25 (Y75 value) [2]: 100 µM | Rabbit Psoas EC25 (Y75 value) [3]: 100 µM

CC(NC(=O)Cn1c(=O)[nH]c2ccccc2c1=O)c1ncc(F)cc1F (stereo not drawn) [Compound 47, N-(1-(3,5-difluoropyridin-2-yl)ethyl)-2-(2,4-dioxo-1,4-dihydroquinazolin-3(2H)-yl)acetamide]
Porcine Ventricle EC25 (Y75 value) [1]: 100 µM | Porcine Atria EC25 (Y75 value) [2]: 1.442 µM | Rabbit Psoas EC25 (Y75 value) [3]: 1.97 µM

Cc1ccc2[nH]c(=O)n(CC(=O)N[C@@H](C)c3ccc(F)cc3F)c(=O)c2c1 [Compound 51, (S)-N-(1-(2,4-difluorophenyl)ethyl)-2-(6-methyl-2,4-dioxo-1,4-dihydroquinazolin-3(2H)-yl)acetamide]
Porcine Ventricle EC25 (Y75 value) [1]: 13.83 µM | Porcine Atria EC25 (Y75 value) [2]: 0.2427 µM | Rabbit Psoas EC25 (Y75 value) [3]: 0.984 µM

C[C@H](NC(=O)Cn1c(=O)[nH]c2ccnc(O)c2c1=O)c1ccc(F)cc1F [Compound 59, (S)-N-(1-(2,4-difluorophenyl)ethyl)-2-(5-hydroxy-2,4-dioxo-1,4-dihydropyrido[4,3-d]pyrimidin-3(2H)-yl)acetamide]
Porcine Ventricle EC25 (Y75 value) [1]: 100 µM | Porcine Atria EC25 (Y75 value) [2]: 100 µM | Rabbit Psoas EC25 (Y75 value) [3]: 100 µM

COc1nccc2[nH]c(=O)n(CC(=O)N[C@@H](C)c3ccc(F)cc3F)c(=O)c12 [Compound 65, (S)-N-(1-(2,4-difluorophenyl)ethyl)-2-(5-methoxy-2,4-dioxo-1,4-dihydropyrido[4,3-d]pyrimidin-3(2H)-yl)acetamide]
Porcine Ventricle EC25 (Y75 value) [1]: 100 µM | Porcine Atria EC25 (Y75 value) [2]: 3.241 µM | Rabbit Psoas EC25 (Y75 value) [3]: 8.499 µM

COc1cccc2[nH]c(=O)n(CC(=O)N[C@@H](C)c3ccc(F)cc3F)c(=O)c12 [Compound 69, (S)-N-(1-(2,4-difluorophenyl)ethyl)-2-(5-methoxy-2,4-dioxo-1,4-dihydroquinazolin-3(2H)-yl)acetamide]
Porcine Ventricle EC25 (Y75 value) [1]: 100 µM | Porcine Atria EC25 (Y75 value) [2]: 21.1 µM | Rabbit Psoas EC25 (Y75 value) [3]: 1.147 µM

CCC(NC(=O)Cn1c(=O)[nH]c2ccccc2c1=O)c1ccc(F)cc1F (stereo not drawn) [Compound 71, N-(1-(2,4-difluorophenyl)propyl)-2-(2,4-dioxo-1,4-dihydroquinazolin-3(2H)-yl)acetamide]
Porcine Ventricle EC25 (Y75 value) [1]: 53.2 µM | Porcine Atria EC25 (Y75 value) [2]: 12.67 µM | Rabbit Psoas EC25 (Y75 value) [3]: 3.86 µM

C[C@H](NC(=O)Cn1c(=O)[nH]c2cccc(O)c2c1=O)c1ccc(F)cc1F [Compound 72, (S)-N-(1-(2,4-difluorophenyl)ethyl)-2-(5-hydroxy-2,4-dioxo-1,4-dihydroquinazolin-3(2H)-yl)acetamide]
Porcine Ventricle EC25 (Y75 value) [1]: 0.2524 µM | Porcine Atria EC25 (Y75 value) [2]: 0.1151 µM | Rabbit Psoas EC25 (Y75 value) [3]: 0.019 µM

Cc1cccc2[nH]c(=O)n(CC(=O)N[C@@H](C)c3ccc(F)cc3F)c(=O)c12 [Compound 73, (S)-N-(1-(2,4-difluorophenyl)ethyl)-2-(5-methyl-2,4-dioxo-1,4-dihydroquinazolin-3(2H)-yl)acetamide]
Porcine Ventricle EC25 (Y75 value) [1]: 0.707 µM | Porcine Atria EC25 (Y75 value) [2]: 0.1149 µM | Rabbit Psoas EC25 (Y75 value) [3]: 0.0495 µM

O=C(Cn1c(=O)[nH]c2ccccc2c1=O)NC(CO)c1ccc(F)cc1F (stereo not drawn) [Compound 87, N-(1-(2,4-difluorophenyl)-2-hydroxyethyl)-2-(2,4-dioxo-1,4-dihydroquinazolin-3(2H)-yl)acetamide]
Porcine Ventricle EC25 (Y75 value) [1]: 100 µM | Porcine Atria EC25 (Y75 value) [2]: 5.405 µM | Rabbit Psoas EC25 (Y75 value) [3]: 0.817 µM
